{"source": "patent US9028845B2", "about": "“Chimeric immunomodulatory compounds and methods of using the same-IV” (Dynavax Technologies Corporation, priority 2001, dated 2015)", "key": {"human PBMCs": {"test_system": "human PBMCs", "assay": "Human PBMC cytokine response assay (IFN-γ and IFN-α in cell-free medium by ELISA), with or without cPLGA", "type": "cell-based", "settings": "for IFN-α induction (FIG. 10), in words: PBMCs from 8 donors, 20 μg/ml, 24 h"}, "CD19+ B cells": {"test_system": "CD19+ B cells", "assay": "Human B cell proliferation assay (3H-thymidine incorporation)", "settings": "purified human B cells, 5 μg/ml, 96 h"}, "[1]": {"settings": "Table 24, mean of donors 28234-28237"}, "[2]": {"settings": "Table 25, mean of donors 28250-28253"}}}
{"substance": "(5′-TCGACGT-3′-HEG)2-glycerol-HEG-5′-TCGACGT-3′ [Compound C-101]", "values": [{"measurement": "IFN-α", "setting": "human PBMCs; Example 58, 0.8 ug/ml, donor 1", "result": 52, "unit": "pg/mL"}, {"measurement": "IFN-α", "setting": "human PBMCs; Example 58, 0.8 ug/ml, donor 2", "result": 52, "unit": "pg/mL"}, {"measurement": "IFN-α", "setting": "human PBMCs; Example 58, 0.8 ug/ml, donor 3", "result": 52, "unit": "pg/mL"}, {"measurement": "IFN-α", "setting": "human PBMCs; Example 58, 0.8 ug/ml, donor 4", "result": 52, "unit": "pg/mL"}, {"measurement": "IFN-α mean", "setting": "human PBMCs; Example 58, 0.8 ug/ml, mean of four individuals", "result": 52, "unit": "pg/mL"}, {"measurement": "IFN-α", "setting": "human PBMCs; Example 58, 4 ug/ml, donor 1", "result": 52, "unit": "pg/mL"}, {"measurement": "IFN-α", "setting": "human PBMCs; Example 58, 4 ug/ml, donor 2", "result": 52, "unit": "pg/mL"}, {"measurement": "IFN-α", "setting": "human PBMCs; Example 58, 4 ug/ml, donor 3", "result": 59, "unit": "pg/mL"}, {"measurement": "IFN-α", "setting": "human PBMCs; Example 58, 4 ug/ml, donor 4", "result": 204, "unit": "pg/mL"}, {"measurement": "IFN-α mean", "setting": "human PBMCs; Example 58, 4 ug/ml, mean of four individuals", "result": 92, "unit": "pg/mL"}, {"measurement": "IFN-α", "setting": "human PBMCs; Example 58, 20 ug/ml, donor 1", "result": 2330, "unit": "pg/mL"}, {"measurement": "IFN-α", "setting": "human PBMCs; Example 58, 20 ug/ml, donor 2", "result": 109, "unit": "pg/mL"}, {"measurement": "IFN-α", "setting": "human PBMCs; Example 58, 20 ug/ml, donor 3", "result": 215, "unit": "pg/mL"}, {"measurement": "IFN-α", "setting": "human PBMCs; Example 58, 20 ug/ml, donor 4", "result": 157, "unit": "pg/mL"}, {"measurement": "IFN-α mean", "setting": "human PBMCs; Example 58, 20 ug/ml, mean of four individuals", "result": 703, "unit": "pg/mL"}, {"measurement": "IFN-α", "setting": "human PBMCs; Example 59, 0.8 ug/ml, donor 48", "result": 102, "unit": "pg/mL"}, {"measurement": "IFN-α", "setting": "human PBMCs; Example 59, 0.8 ug/ml, donor 177", "result": 102, "unit": "pg/mL"}, {"measurement": "IFN-α", "setting": "human PBMCs; Example 59, 0.8 ug/ml, donor 272", "result": 185, "unit": "pg/mL"}, {"measurement": "IFN-α", "setting": "human PBMCs; Example 59, 0.8 ug/ml, donor 273", "result": 102, "unit": "pg/mL"}, {"measurement": "IFN-α mean", "setting": "human PBMCs; Example 59, 0.8 ug/ml, mean of four donors", "result": 123, "unit": "pg/mL"}, {"measurement": "IFN-α", "setting": "human PBMCs; Example 59, 4 ug/ml, donor 48", "result": 818, "unit": "pg/mL"}, {"measurement": "IFN-α", "setting": "human PBMCs; Example 59, 4 ug/ml, donor 177", "result": 3631, "unit": "pg/mL"}, {"measurement": "IFN-α", "setting": "human PBMCs; Example 59, 4 ug/ml, donor 272", "result": 604, "unit": "pg/mL"}, {"measurement": "IFN-α", "setting": "human PBMCs; Example 59, 4 ug/ml, donor 273", "result": 102, "unit": "pg/mL"}, {"measurement": "IFN-α mean", "setting": "human PBMCs; Example 59, 4 ug/ml, mean of four donors", "result": 1289, "unit": "pg/mL"}, {"measurement": "IFN-α", "setting": "human PBMCs; Example 59, 20 ug/ml, donor 48", "result": 2212, "unit": "pg/mL"}, {"measurement": "IFN-α", "setting": "human PBMCs; Example 59, 20 ug/ml, donor 177", "result": 4277, "unit": "pg/mL"}, {"measurement": "IFN-α", "setting": "human PBMCs; Example 59, 20 ug/ml, donor 272", "result": 642, "unit": "pg/mL"}, {"measurement": "IFN-α", "setting": "human PBMCs; Example 59, 20 ug/ml, donor 273", "result": 102, "unit": "pg/mL"}, {"measurement": "IFN-α mean", "setting": "human PBMCs; Example 59, 20 ug/ml, mean of four donors", "result": 1808, "unit": "pg/mL"}, {"measurement": "IFN-α induction (FIG. 10), in words", "setting": "human PBMCs", "result": "induce high levels of IFN-α"}, {"measurement": "IFN-α", "setting": "human PBMCs; Table 24, donor 28234", "result": 16, "unit": "pg/mL"}, {"measurement": "IFN-γ", "setting": "human PBMCs; Table 24, donor 28234", "result": 14, "unit": "pg/mL"}, {"measurement": "IFN-α", "setting": "human PBMCs; Table 24, donor 28235", "result": 249, "unit": "pg/mL"}, {"measurement": "IFN-γ", "setting": "human PBMCs; Table 24, donor 28235", "result": 205, "unit": "pg/mL"}, {"measurement": "IFN-α", "setting": "human PBMCs; Table 24, donor 28236", "result": 1354, "unit": "pg/mL"}, {"measurement": "IFN-γ", "setting": "human PBMCs; Table 24, donor 28236", "result": 627, "unit": "pg/mL"}, {"measurement": "IFN-α", "setting": "human PBMCs; Table 24, donor 28237", "result": 8566, "unit": "pg/mL"}, {"measurement": "IFN-γ", "setting": "human PBMCs; Table 24, donor 28237", "result": 2612, "unit": "pg/mL"}, {"measurement": "IFN-α mean", "setting": "human PBMCs; [1]", "result": 2546, "unit": "pg/mL"}, {"measurement": "IFN-γ mean", "setting": "human PBMCs; [1]", "result": 865, "unit": "pg/mL"}, {"measurement": "IFN-a", "setting": "human PBMCs; Table 25, donor 28250", "result": 540, "unit": "pg/mL"}, {"measurement": "IFN-g", "setting": "human PBMCs; Table 25, donor 28250, polynucleotides/spacers at amounts equivalent to the CIC, spacers alone 9 uM", "result": 224, "unit": "pg/mL"}, {"measurement": "IFN-a", "setting": "human PBMCs; Table 25, donor 28251", "result": 1472, "unit": "pg/mL"}, {"measurement": "IFN-g", "setting": "human PBMCs; Table 25, donor 28251", "result": 63, "unit": "pg/mL"}, {"measurement": "IFN-a", "setting": "human PBMCs; Table 25, donor 28252", "result": 509, "unit": "pg/mL"}, {"measurement": "IFN-g", "setting": "human PBMCs; Table 25, donor 28252", "result": 180, "unit": "pg/mL"}, {"measurement": "IFN-a", "setting": "human PBMCs; Table 25, donor 28253", "result": 2645, "unit": "pg/mL"}, {"measurement": "IFN-g", "setting": "human PBMCs; Table 25, donor 28253", "result": 146, "unit": "pg/mL"}, {"measurement": "IFN-a mean", "setting": "human PBMCs; [2]", "result": 1291, "unit": "pg/mL"}, {"measurement": "IFN-g mean", "setting": "human PBMCs; [2]", "result": 153, "unit": "pg/mL"}, {"measurement": "B cell proliferation (FIG. 11), in words", "setting": "CD19+ B cells", "result": "induce very little B cell proliferation"}]}
{"substance": "(5′-TCGTCGT-3′-HEG)2-glycerol-HEG-5′-TCGTCGT-3′ [Compound C-142]", "values": [{"measurement": "IFN-α induction (FIG. 10), in words", "setting": "human PBMCs", "result": "induce high levels of IFN-α"}, {"measurement": "B cell proliferation (FIG. 11), in words", "setting": "CD19+ B cells", "result": "induce B cells to proliferate"}]}
